{"source": "patent US20090005406A1", "about": "“Cancer Treatment Method” (SMITHKLINE BEECHAM CORPORATION, priority 2005, published 2009)", "key": {"Solid Tumors": {"tested_on": "Solid Tumors", "test": "Clinical study of orally administered pazopanib in patients with solid tumors (clinical response)", "type": "in vivo", "set-up": "key to Response: SD stable disease;; MR mixed response;; PR partial remission", "experimental": "(§1) Sixty-three patients (pts) with cancer were treated with pazopanib three times a week, once (qd) or twice (bid) daily in a dose escalation scheme. The amount and frequency of administration of pazopanib to a representative number of those pts is summarized below in Table 1. Pts were evaluated monthly and treated until disease progression or intolerable side effects. Clinical response was determined every 8 wks. Safety and pharmacodynamics were separately assessed.\n(§2) Preliminary representative patient data are shown below in Table 2."}, "[1]": {"test": "Peak plasma concentration of pazopanib in the clinical study", "type": "in vivo", "conditions": "oral dosing, regardless of tumor type", "experimental": "as §1, §2"}, "[2]": {"conditions": "patient with Adeno lung, 200-800 mg qd, oral"}, "[3]": {"conditions": "patient with Chondrosarcoma, 400-800 mg qd, oral"}, "[4]": {"conditions": "patient with Chondrosarcoma, 2000-800 mg qd, oral"}, "[5]": {"conditions": "patient with GIST, 600-800 mg qd, oral"}, "[6]": {"conditions": "patient with Hurthle Cell tumor, 50-800 mg qd, oral"}, "[7]": {"conditions": "patient with Leiomyosarcoma, 50-800 mg qd, oral"}, "[8]": {"conditions": "patient with Melanoma, 50-400 mg qd, oral"}, "[9]": {"conditions": "patient with Neuroendocrine tumor, 300 mg bid, oral"}, "[10]": {"conditions": "patient with Rectal carcinoid, 800 mg qd, oral"}, "[11]": {"conditions": "patient with Renal cell carcinoma, 800 mg qd, oral, patient withdrawn from study"}, "[12]": {"conditions": "patient with Renal cell carcinoma, 2000 mg qd, oral"}, "[13]": {"conditions": "patient with Renal cell carcinoma, 1400-800 mg qd, oral"}}, "note": "Marks after values point to notes of the source that are not given here.", "data": [{"smiles": "Cc1ccc(Nc2nccc(N(C)c3ccc4c(C)n(C)nc4c3)n2)cc1S(N)(=O)=O", "note": "[pazopanib, 5-({4-[(2,3-dimethyl-2H-indazol-6-yl)(methyl)amino]pyrimidin-2-yl}amino)-2-methylbenzenesulfonamide]", "values": [{"measurement": "Duration on pazopanib (weeks)", "setting": "Solid Tumors; [2]", "value": 55, "unit": "weeks"}, {"measurement": "Response", "setting": "Solid Tumors; [2]", "value": "SD"}, {"measurement": "Duration on pazopanib (weeks)", "setting": "Solid Tumors; [3]", "value": 31, "unit": "weeks"}, {"measurement": "Response", "setting": "Solid Tumors; [3]", "value": "SD"}, {"measurement": "Duration on pazopanib (weeks)", "setting": "Solid Tumors; [4]", "value": "90+ weeks"}, {"measurement": "Response", "setting": "Solid Tumors; [4]", "value": "SD (MR)"}, {"measurement": "Duration on pazopanib (weeks)", "setting": "Solid Tumors; [5]", "value": 60, "unit": "weeks"}, {"measurement": "Response", "setting": "Solid Tumors; [5]", "value": "SD"}, {"measurement": "Duration on pazopanib (weeks)", "setting": "Solid Tumors; [6]", "value": 101, "unit": "weeks"}, {"measurement": "Response", "setting": "Solid Tumors; [6]", "value": "SD (MR)"}, {"measurement": "Duration on pazopanib (weeks)", "setting": "Solid Tumors; [7]", "value": 34, "unit": "weeks"}, {"measurement": "Response", "setting": "Solid Tumors; [7]", "value": "SD"}, {"measurement": "Duration on pazopanib (weeks)", "setting": "Solid Tumors; [8]", "value": 36, "unit": "weeks"}, {"measurement": "Response", "setting": "Solid Tumors; [8]", "value": "SD"}, {"measurement": "Duration on pazopanib (weeks)", "setting": "Solid Tumors; [9]", "value": "50+ weeks"}, {"measurement": "Response", "setting": "Solid Tumors; [9]", "value": "MR"}, {"measurement": "Duration on pazopanib (weeks)", "setting": "Solid Tumors; patient with Neuroendocrine tumor, 1000 mg qd, oral", "value": 38, "unit": "weeks"}, {"measurement": "Response", "setting": "Solid Tumors; patient with Neuroendocrine tumor, 1000 mg qd, oral, preliminary data not yet confirmed", "value": "PR^#"}, {"measurement": "Duration on pazopanib (weeks)", "setting": "Solid Tumors; [10]", "value": "40+ weeks"}, {"measurement": "Response", "setting": "Solid Tumors; [10]", "value": "SD"}, {"measurement": "Response", "setting": "Solid Tumors; patient with Renal cell carcinoma, 300 mg bid, oral (40+ weeks patient)", "value": "MR"}, {"measurement": "Response", "setting": "Solid Tumors; patient with Renal cell carcinoma, 300 mg bid, oral (52+ weeks patient)", "value": "PR"}, {"measurement": "Duration on pazopanib (weeks)", "setting": "Solid Tumors; patient with Renal cell carcinoma, 300 mg bid, oral, response MR", "value": "40+ weeks"}, {"measurement": "Duration on pazopanib (weeks)", "setting": "Solid Tumors; patient with Renal cell carcinoma, 300 mg bid, oral, response PR", "value": "52+ weeks"}, {"measurement": "Response", "setting": "Solid Tumors; patient with Renal cell carcinoma, 800 mg qd, oral (12+ weeks patient)", "value": "SD"}, {"measurement": "Duration on pazopanib (weeks)", "setting": "Solid Tumors; [11]", "value": 19, "unit": "weeks"}, {"measurement": "Response", "setting": "Solid Tumors; [11]", "value": "SD (MR)*"}, {"measurement": "Duration on pazopanib (weeks)", "setting": "Solid Tumors; patient with Renal cell carcinoma, 800 mg qd, oral, response SD", "value": "12+ weeks"}, {"measurement": "Duration on pazopanib (weeks)", "setting": "Solid Tumors; [12]", "value": 24, "unit": "weeks"}, {"measurement": "Response", "setting": "Solid Tumors; [12]", "value": "SD (MR)"}, {"measurement": "Duration on pazopanib (weeks)", "setting": "Solid Tumors; [13]", "value": 40, "unit": "weeks"}, {"measurement": "Response", "setting": "Solid Tumors; [13]", "value": "SD (MR)"}, {"measurement": "peak plasma concentrations of pazopanib in patients that demonstrated a clinical benefit", "setting": "[1]", "value": "≥ 40", "unit": "µM"}]}]}
